Laboratory results as given in paper PMC11969438 (Inorganic Chemistry Frontiers, 2025).
“Also recorded” adds a separate entry of the source. Where two headings read alike, the source gives them in different places.

What was measured:
[1] = system: NF-κB pathway (STING-dependent); assay: NF-κB-inducible SEAP reporter in THP1-Dual reporter cell model; format: cell-based, human
Description: (§1) The THP1-Dual™ reporter cell model for simultaneously monitoring the activity of the IRF and NF-κB pathway contains an IRF-inducible luciferase reporter under the control of an ISG54 minimal promoter in conjunction with five interferon (IFN)-stimulated response elements, and an induced SEAP driven by an IFN-β minimal promoter fused to five copies of the NF-κB consensus transcriptional response element and three copies of the c-Rel binding site. The luciferase and SEAP reporter are measurable in the cell culture supernatant using QUANTI-Luc™ 4 Lucia/Gaussia (InvivoGen) and QUANTI-Blue™ (InvivoGen) solution, respectively. Cells were seeded at 1 × 10^5 cells per well in 96-well plates in RPMI-1640 medium, supplemented with 10% FCS, L-glutamine and Pen-Strep. After 2 h of recovery, the compounds were applied at the concentrations indicated in triplicate. The cell culture supernatant (SN) was collected after 24 h of drug incubation and secreted luciferase and SEAP reporter levels were measured according to the manufacturer's recommendations. In brief, for the detection of luciferase, 20 μL of SN were transferred into 96-well white opaque plates, and 30 μL of QUANTI-Luc™ reagent were added per well using an injector module in a multimode microplate reader (Tecan Spark, Zurich, Switzerland). Luminescence was recorded at a reading time of 0.1 second. For the detection of SEAP, 10 μL of SN were transferred to 96-well plates and 90 μL of QUANTI-Blue™ were added per well. Absorbance was measured at 620 nm. Half-maximal effective concentrations (EC50 values) were derived via interpolation from dose–response curves, modeled with the four-parameter logistic (4PL) nonlinear regression model in GraphPad Prism. For comparison, the maximal response rate of the prodrug was depicted in the percent of the maximal response rate achieved by SR-717 or MSA-2 (%EMAX) at the respective concentrations tested. Activatability, tested in co-incubation experiments with AA (50 μM), was expressed as the area under the curve (AUC) ratio of +AA vs. −AA-treated cells. The STING-dependency of the reporter induction was tested by co-administration of the STING inhibitor H-151 (10 μM), added to the cell culture medium 2 h before applying the investigated compounds. In addition to monitoring secreted reporter levels, the cell viability of the reporter cells was determined after 24 h of drug treatment by an MTT-based cell viability assay.

[2] = system: THP1-Dual, HCT116, HCT116/OxR and CT-26 cells; assay: MTT-based cell viability assay, 72 h, statements over all investigated cell lines; set-up: species or system human and murine; details: none of the investigated cell lines vulnerable, read-out: IC50 of free single agent
Experimental: Cell models were seeded (2–2.5 × 10^3 cells per well) in 96-well plates. After 24 h of recovery, the compounds were applied at the concentrations indicated in triplicate. Cell viability was determined after 72 h of continuous drug incubation using an MTT-based cell viability assay (EZ4U, Biomedica, Vienna, Austria) according to the manufacturer's recommendations. Absorbance was measured at 450 nm (vs. 620 nm as reference) using a multimode microplate reader (Tecan Spark, Zurich, Switzerland). Half-maximal inhibitory concentrations (IC50 values) were derived via interpolation from dose–response curves, modeled with the four-parameter logistic (4PL) nonlinear regression model in GraphPad Prism (La Jolla, CA, USA) from at least three independent experiments.

[3] = system: IRF pathway (STING-dependent); assay: IRF-inducible luciferase reporter in THP1-Dual reporter cell model; format: cell-based, human
Description: as §1

[4] = system: IRF pathway (STING-dependent); set-up: method as in PMID 32820126; details: read-out: IRF EC50, previous report; cited from earlier work
[5] = Platinum distribution study in vivo by ICP-MS; set-up: species or system CT-26 tumor-bearing BALB/c mice; details: i.v., 24 h after second dose
Experimental: (§2) Tumor size was determined daily via manual caliper measurement. […] Animals were euthanized via cervical dislocation.
The generation and treatment of tumor-bearing mice are outlined in the section “In vivo syngraft experiments” described above. Mouse tissues were processed as described previously.[13] Briefly, serum was isolated from peripheral blood by centrifugation (900g, 10 min, 4 °C, twice). Tissues were digested in 20% nitric acid and hydrogen peroxide using an open-vessel graphite digestion system. The platinum concentration was determined by ICP-MS analysis; for details see “Intracellular platinum accumulation in vitro by ICP-MS”.

[6] = system: CT-26 tumors; assay: Anticancer efficacy in vivo, syngeneic colorectal carcinoma; set-up: species or system BALB/c mice; details: i.v. twice a week for two weeks, equimolar to 9 mg kg^−1 oxaliplatin
Experimental: as §2

[7] = system: immune cell populations in tumor and spleen; assay: Immune activation and infiltration by flow cytometry; format: in vivo, CT-26-bearing BALB/c mice; details: 24 h after second dose
Experimental: as §2
The generation and treatment of tumor-bearing mice are outlined in the section “In vivo syngraft experiments” above. Samples were kept on ice during the whole procedure. Tissues were prepared as described previously.[55] In brief, tumor and spleen tissues were collected and mechanically dissociated in DPBS buffer containing Ca^2+/Mg^2+ and FCS (5%). Tumor samples were digested using collagenase VIII (1 mg mL^−1) in a DPBS buffer (without Ca^2+/Mg^2+) supplemented with DNAse I (1 mg mL^−1) for 15 min at 37 °C under constant shaking. Samples were filtered using 70 μm cell strainers in a DPBS buffer (without Ca^2+/Mg^2+) containing FCS (5%), EDTA (5 mM) and DNase I (20 μg mL^−1). Subsequent washing steps were performed in DPBS buffer (without Ca^2+/Mg^2+) containing FCS (5%), EDTA (5 mM) and DNase I (20 μg mL^−1), unless indicated otherwise. Red blood cells were removed by short incubation with ACK buffer. For blocking, samples were incubated with the Ultra-LEAF purified anti-mouse CD16/CD32 antibody (clone: 93; #101330; RRID:AB_2783037; dilution: 1 : 1000) (Biolegend, San Diego, CA, USA) in the BD Horizon Brilliant Stain Buffer (#563794; BD Biosciences) for 10 min. Next, the samples were incubated with an antibody mixture in the BD Horizon Brilliant Stain Buffer for 30 min. Fluorescent dye-labeled antibodies targeting murine CD3 (17A2; #100203; RRID:AB_312661; 1 : 50), CD8a (53-6.7; #100738; RRID:AB_11204079; 1 : 160), CD19 (6D5; #115528; RRID:AB_493735; 1 : 400), CD49b (DX5; #108924; RRID:AB_2565271; 1 : 229), CD11b (M1/70; #101228; RRID:AB_893232; 1 : 80), and CD69 (H1.2F3; # 104512; RRID:AB_493564; 1 : 40) were purchased from BioLegend. The antibody targeting murine CD4 (RM4-5; # 85-0042-U100; 1 : 80) and the viability dye Ghost Dye Red 780 (#13-0865-T100; 1 : 1000) were purchased from Tonbobio (San Diego, CA, USA). The antibody targeting CD45 (30-F11; #363-0451-82; RRID:AB_2925264; 1 : 80) was purchased from Life Tech (Invitrogen). For intracellular staining of granzyme B (GzmB) (QA16A02; #372208; RRID:AB_2687032; 1 : 20) and FoxP3 (MF-14; #320014; RRID:AB_439750; 1 : 100) the True-Nuclear Transcription Factor Buffer Set (Biolegend; #424401) was used according to the manufacturer's recommendations. In brief, samples were incubated with Perm Fix Solution for 60 min at RT. Next, the samples were stained with antibodies targeting GzmB and FoxP3 (diluted in Perm buffer) for 30 min at RT. […] Next day, the samples were analyzed using a Cytek Aurora 5L (Cytek Biosciences, CA, USA) spectral flow cytometer. Data were analyzed using SpectroFlo (v3.2.1) (Cytek Biosciences) and FlowJo (v10.8.1) (FlowJo LLC, Ashland, OR, USA) software.

[8] = Hematological analysis after long-term treatment; details: 72 h after the fourth dose
Experimental: (§3) Mice were kept in groups of four per cage with sterilized paper-based environmental enrichment and food and water ad libitum, under pathogen-free conditions and a controlled environment with a 12 h light–dark cycle. Syngeneic models of colorectal carcinoma were generated via subcutaneous injection of CT-26 cells (0.5 × 10^6 cells in 50 μL of serum-free RPMI-1640 medium) into the right flank of 8–12 weeks old BALB/c mice. […] All animals were euthanized 24 h after the second dose. […] To determine the anticancer efficacy of the investigated compounds, treatment started 4 d after tumor implantation, when all tumors were measurable (>25 mm^3) using a twice-weekly treatment scheme for two weeks. Tumor size was determined daily via manual caliper measurement. The tumor volume was calculated as tumor volume = (length × diameter × diameter)/2. The overall condition, shape, and activity of the animals were assessed daily. Peripheral blood was collected from the submandibular vein in K3E K3EDTA tubes (Greiner Bio-One; Kremsmünster, AUT) on ice and was analyzed for hematological parameters (red blood cells (RBCs), hemoglobin (HGB), hematocrit (HCT), red cell distribution width (RDW), mean corpuscular volume (MCV), white blood cells (WBCs), lymphocytes (LYM), monocytes (MO), granulocytes (GRA), and platelets (PLT) using a Vet ABC hematology analyzer (scil Animal Care GmbH, Viernheim, Germany). EDTA-blood was centrifuged (900g, 10 min) twice and the supernatant (EDTA-plasma) was stored at −20 °C for subsequent cytokine/chemokine analysis using a Luminex detection platform. All animal experiments were performed with humane endpoints based on Federation of European Laboratory Animal Science Associations guidelines and according to the regulations of the Ethics Committee for the Care and Use of Laboratory Animals at the Medical University Vienna (proposal number BMBWF 2023–0.122.324). Animals were euthanized upon reaching a tumor volume of >1500 mm^3, a loss in body weight (>20%), tumor ulceration or other indications of deteriorated health. Animals were euthanized via cervical dislocation.

[9] = Hematological analysis 24 h after the second dose; details: two i.v. doses equimolar to 9 mg kg^−1 oxaliplatin, 24 h after second dose
Experimental: as §3

[10] = target: T1, albumin (Bos taurus, UniProt P02769); assay: Albumin binding in fetal calf serum, SEC-ICP-MS; format: in vitro ADME; details: 50 μM in FCS
T1 construct: Serum proteins have a retention span of ∼2–4 min as part of the high-molecular weight fraction with albumin at ∼4 min; tissue Sigma-Aldrich; host or cells: fetal calf serum (whole serum, buffered with 150 mM phosphate buffer pH 7.4)
Experimental: FCS was purchased from Sigma-Aldrich and buffered with 150 mM PB pH 7.4 to guarantee a stable pH. The platinum(IV) complexes were dissolved in 150 mM PB (pH 7.4) at a concentration of 5 mM and diluted 1 : 100 in the buffered serum to obtain a final concentration of 50 μM. The samples were then incubated in an autosampler at 37 °C and analyzed for 24 h. Between each sample, a pure water blank was measured. For SEC-ICP-MS measurements an Agilent 1260 Infinity system coupled to an Agilent 7800 ICP-MS equipped with a dynamic reaction cell was used. Oxygen (purity 5.5, Messer Austria GmbH, Gumpoldskirchen, Austria) was used as a reaction gas.

[11] = Cytokine and chemokine levels in plasma of treated animals, Luminex; format: in vivo, CT-26-bearing BALB/c mice; details: 24 h after second dose
Experimental: Next, the ProcartaPlex (96-well) multiplex assay panel was performed according to the manufacturer's recommendations. In brief, the capture bead mix was incubated with test samples (undiluted SN or mouse plasma) or standard mix overnight. The SN of three independent experiments or the plasma of four animals per treatment group was loaded onto the multiplex assay plate. Next, biotinylated detection antibody mix and Streptavidin-PE were added to the plate. Following the recommended washing steps, the samples were incubated in a reading buffer and were measured using a Luminex xMAP platform (Bio-Plex MAGPIX Multiplex Reader; Bio-Rad Laboratories) and analyzed using xPONENT software.
as §2

[12] = 24 h, maximal response relative to SR-717
[13] = 24 h exposure, normalized to cell viability, oxaliplatin in combinations 5 μM
[14] = two doses, vs Ox-MSA-PEG-Ca or oxaliplatin

T1 sequence (P02769 25-607): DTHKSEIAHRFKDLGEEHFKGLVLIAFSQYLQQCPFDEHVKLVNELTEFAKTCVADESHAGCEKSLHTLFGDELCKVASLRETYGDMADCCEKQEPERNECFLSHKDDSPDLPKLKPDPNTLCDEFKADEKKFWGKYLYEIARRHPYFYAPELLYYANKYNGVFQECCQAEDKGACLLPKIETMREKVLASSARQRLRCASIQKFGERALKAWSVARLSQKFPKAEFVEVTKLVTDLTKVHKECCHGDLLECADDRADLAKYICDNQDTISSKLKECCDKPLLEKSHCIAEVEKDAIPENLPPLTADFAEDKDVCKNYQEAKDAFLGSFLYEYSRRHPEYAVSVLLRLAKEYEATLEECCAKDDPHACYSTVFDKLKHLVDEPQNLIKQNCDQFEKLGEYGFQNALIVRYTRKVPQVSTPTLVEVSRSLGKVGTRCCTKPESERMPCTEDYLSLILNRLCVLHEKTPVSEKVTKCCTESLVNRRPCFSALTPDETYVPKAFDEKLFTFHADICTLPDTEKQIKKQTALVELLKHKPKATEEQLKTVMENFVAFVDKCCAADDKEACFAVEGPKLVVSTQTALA

O=C(Nc1cc(F)c(F)cc1C(=O)[O-])c1ccc(-n2ccnc2)nn1.[Li+] [SR-717]
NF-κB EC50 ratio fold SR-717 ([1]; 24 h): 1.0 fold | activation of NF-κB signaling pathway ([1]; 24 h): robustly activated | NF-κB %EMAX of SR-717 [1, 12]: 100% | EC50 [1, 13]: 5.8 µM | IC50 [2]: > 75 µM | IRF EC50 ratio fold SR-717 ([3]; 24 h): 1.0 fold | activation of IRF signaling pathway ([3]; 24 h): robustly activated | IRF %EMAX of SR-717 [3, 12]: 100% | EC50 [3, 13]: 2.9 µM | impact of reducing conditions on IRF-induced reporter signal (AUC ratio +AA/−AA) ([3]; AA 50 μM): no notable modulation | EC50 [4]: 2.1 µM

COc1cc2cc(C(=O)CCC(=O)[O][Pt-2]34([O]C(=O)NCCOCCOCCOCCOCCN5C(=O)C=CC5=O)([NH2+][C@@H]5CCCC[C@H]5[NH2+]3)[O]C(=O)C(=O)[O]4)sc2cc1OC [Ox-MSA-Mal, (OC-6-34)-[(1R,2R)-1,2-cyclohexanediamino]-oxalato-[4-(5,6-dimethoxybenzo[b]thiophen-2-yl)-4-oxobutylcarboxylato]-[(14-(2,5-dioxo-2,5-dihydro-1H-pyrrol-1-yl)-3,6,9,12-tetraoxatetradecyl)carbamato]platinum(IV)]
liver platinum level relative to tumor ([5]; two doses equimolar to 9 mg kg^−1 oxaliplatin): 1.4 fold | platinum accumulation in peripheral blood cells [5, 14]: clearly lowered accumulation | platinum levels in serum and tumor [5, 14]: distinctly elevated platinum levels | tumor growth [6]: distinctly stronger anticancer efficacy; also recorded: significantly inhibited colorectal tumor growth | FoxP3+ CD4+ T cell compartment in the spleen [7]: selectively elevated | RBC toxicity [8]: strongly reduced | platelet counts (PLT) / thrombocytopenia [8]: not evident | absolute counts of white blood cells and subpopulations ([8]; i.v. twice a week for two weeks): induced an increase | anemia [9]: not | platinum bound to albumin ([10]; 150 mM PB pH 7.4, 37 °C, 0 h time point): approximately 99% | stability of albumin drug conjugate ([10]; 37 °C, no release of platinum from the protein): stable over 24 h | plasma chemokines CXCL9 and CXCL11 [11]: most strongly activated
